Laboratory results from US20250057963A1, “DISCOVERY OF PIPERLONGUMINE AS A NOVEL E3 LIGASE LIGAND” (University of Florida Research Foundation, Incorporated, priority 2021, published 2025).
“Also recorded” adds a separate entry of the source.

What was measured:
[1] = molecular target: CDK9 (Homo sapiens, UniProt P50750); experiment: 955-induced CDK9 degradation in H1299 cells after KEAP1, TRIP12 or TRAF6 knockdown/knockout and KEAP1 rescue; assay type: cell-based; set-up: endogenous in cells; host or cells: MOLT4, 293T, K562, NCI-H1299, LNCaP
CDK9, sequence (P50750 whole entry): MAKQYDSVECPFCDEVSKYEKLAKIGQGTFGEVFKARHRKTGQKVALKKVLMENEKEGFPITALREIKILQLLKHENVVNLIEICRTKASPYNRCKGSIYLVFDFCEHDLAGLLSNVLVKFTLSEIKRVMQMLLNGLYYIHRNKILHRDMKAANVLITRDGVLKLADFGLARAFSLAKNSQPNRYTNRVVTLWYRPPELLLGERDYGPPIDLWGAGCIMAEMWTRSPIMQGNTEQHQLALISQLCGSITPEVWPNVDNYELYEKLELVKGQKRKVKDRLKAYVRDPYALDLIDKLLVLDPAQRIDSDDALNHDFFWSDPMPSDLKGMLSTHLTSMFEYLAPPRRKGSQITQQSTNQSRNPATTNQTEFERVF
Protocol: Cells were collected and lysed in RIPA lysis buffer (Cat. #BP-115DG, Boston Bio Products, Ashland, MA, USA) supplemented with protease and phosphatase inhibitor cocktails (Cat. #PPC1010, Sigma-Aldrich, St. Louis, MO, USA). Protein samples were made and immunoblotting was performed as described previously (Khan et al., 2019; Lv et al., 2021). Antibodies purchased from Cell Signaling Technologies (CST) and the dilutions are as follows: Biotin (Cat. No. 5571S, 1:1000), PARP (Cat. No. 9542S, 1:1000), c-Myc (Cat. No. 5605S, 1:1000), MCL1 (Cat. No. 5453S, 1:1000), and ALK (Cat. No. 3791S, 1:1000). KEAP1 antibody was purchased from Proteintech (Cat. No. 10503-2-AP, 1:1000). CDK9 antibody was purchased from Santa Cruz (Cat. No. sc-13130, 1:500). V5-tag antibody was purchased from Bethyl (Cat. No. A190-120P, 1:1000). j-actin antibody was purchased from MP Biomedicals (Cat. No. 8691001, 1:20 000).
To knockout KEAP1, two lentiviral CRISPR knockout plasmids targeting human KEAP1 gene were purchased from Abm (Cat. No. 254911110595). Packaging 293T cells were transfected with KEAP1 single guide RNA (sgRNA) and helper vectors (pMD2.G and psPAX2; Addgene plasmid #12259 and 12260) using Lipofectamine 3000 reagent (Cat. No. L3000015, Thermal Fisher). Medium containing lentiviral particles and 8 µg/mL polybrene (Sigma-Aldrich) was used to infect H1299 cells. Infected cells were selected in medium containing […] puromycin. The sgRNA target sequences are as follows: sg1: […]; sg2: […]. Single clones were selected by serial dilution.
KEAP1-sg1 knockout H1299 (4×10^5) cells were transfected with or without plasmid expressing Halo-KEAP1 (Addgene, a gift from Yimon Aye, plasmid #58240) using Lipofectamine 3000 reagent (Cat. No. L3000015, Thermal Fisher). After 24 h, the cells in each well of 6-well plate were divided into two wells and cultured for additional 16 h.

[2] = molecular target: T1, E3 ligases interacting with V5-TurboID-CDK9 (Homo sapiens, UniProt Q14145); experiment: TurboID-bait assay (V5-TurboID-CDK9 in 293T cells) with LC-MS/MS or immunoblot; assay type: cell-based; details: with vs without 955, biotin present
T1 construct: The biotinylated proteins identified by MS in 293T cells; expressed in transfected cells; host or cells: 293T
T1 sequence (Q14145 whole entry): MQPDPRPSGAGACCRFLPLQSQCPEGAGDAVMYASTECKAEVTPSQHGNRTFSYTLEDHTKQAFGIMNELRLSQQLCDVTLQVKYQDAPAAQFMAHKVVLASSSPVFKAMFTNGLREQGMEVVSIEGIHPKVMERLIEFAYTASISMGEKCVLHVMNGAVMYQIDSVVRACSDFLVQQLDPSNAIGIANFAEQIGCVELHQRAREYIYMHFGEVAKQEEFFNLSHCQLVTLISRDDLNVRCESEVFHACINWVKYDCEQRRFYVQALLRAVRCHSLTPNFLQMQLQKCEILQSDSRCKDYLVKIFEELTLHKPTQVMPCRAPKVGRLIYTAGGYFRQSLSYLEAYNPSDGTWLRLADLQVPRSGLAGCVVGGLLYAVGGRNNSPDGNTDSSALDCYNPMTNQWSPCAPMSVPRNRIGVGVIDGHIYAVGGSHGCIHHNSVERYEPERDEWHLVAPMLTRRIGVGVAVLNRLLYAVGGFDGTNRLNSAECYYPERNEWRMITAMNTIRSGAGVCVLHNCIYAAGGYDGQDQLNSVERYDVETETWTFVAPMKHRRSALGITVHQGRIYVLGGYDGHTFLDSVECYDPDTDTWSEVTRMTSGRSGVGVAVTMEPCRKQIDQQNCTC
T1 sequence (P50750 whole entry partner): as the sequence (P50750 whole entry) above
Excerpt: (§1) Construction of the pcDNA3-V5-TurboID-CDK9 plasmid. To build the TurboID-bait assay, we first constructed a V5-TurboID-tagged CDK9 plasmid (pDL2518) through Gibson assembly method. The template plasmids HA-CDK9 (a gift from Andrew Rice, plasmid #28102) and V5-TurboID-NES_pCDNA3 (a gift from Alice Ting, plasmid #107169) were purchased from Addgene. The primer pair (5′-cagtctgcggtctgccgaaaagctgcag[…]-3′ and 5′-cagggtcaggcgctccaggggaggcag[…]-3′) and the template HA-CDK9 were used to clone the CDK9 fragment. The two primer pairs: pair-1 (5′-[…]ctgcctcccctggagcgcctgaccctg-3′ and 5′-[…]-3′); pair-2 (5′-[…]-3′ and 5′-[…]ctgcagcttttcggcagaccgcagactg-3′) and the template V5-TurboID-NES_pCDNA3 were used to clone the V5-TurbolD fragment. The PCR fragments were assembled using NEBuilder® HiFi DNAAssembly Master Mix (Cat. No. E2621, NEB, Ipswich, MA, USA). DNA sequences in all these plasmids were authenticated by automatic sequencing.
(§2) TurboID-bait assay. 293T (6×10^5 for WB detection and 1.2×10^6 for MS) cells were transfected with plasmid V5-TurboID-CDK9 using Lipofectamine 2000 as previously described (Lv et al., 2021). […] Then the cells were harvested and lysed in 1×PBS buffer (Cat. #D1408, Sigma-Aldrich). After centrifugation at 20,000×g for 60 min at 4° C., the supernatant soluble fraction was used for further analysis. […]

[3] = test system: E3 ligases interacting with V5-TurboID-CDK9; experiment: as above; assay type: cell-based, Human; details: MS of biotinylated proteins with vs without 955
Excerpt: as §1, §2

955-induced CDK9 degradation after KEAP1 knock down/out (siRNA, CRISPR-Cas9) ([1]; H1299 cells): blocked after depleting KEAP1
955-induced CDK9 degradation after TRIP12 or TRAF6 siRNA knockdown ([1]; H1299 cells, 6 h): had no effect
955-induced CDK9 degradation after ectopic Halo-tagged KEAP1 in KEAP1 stable knockout cells ([1]; KEAP1-sg1 knockout H1299 cells, 955 for 6 h): rescued CDK9 degradation
Compound: COc1cc(/C=C/C(=O)N2CCC=CC2=O)cc(OC)c1OCCN1CCN(C(=O)CN2CCC(C(=O)Nc3ncc(SCc4ncc(C(C)(C)C)o4)s3)CC2)CC1 [compound 955, (E)-N-(5-(((5-(tert-butyl)oxazol-2-yl)methyl)thio)thiazol-2-yl)-1-(2-(4-(2-(2,6-dimethoxy-4-(3-oxo-3-(6-oxo-3,6-dihydropyridin-1(2H)-yl)prop-1-en-1-yl)phenoxy)ethyl)piperazin-1-yl)-2-oxoethyl)piperidine-4-carboxamide]
KEAP1 pulled down (immunoblot validation) [2]: more KEAP1 could be pulled down; also recorded: significantly more KEAP1 can be pulled down
number of E3 ligases recruited to CDK9 [3]: 6
